Test results reported in patent US6982271B1, “Tropane analogs” (Georgetown University, priority 1999, dated 2006).

How the values were obtained:
Format in all cases: cell-based
[1] = target: dopamine transporter (DAT) (Homo sapiens, UniProt Q01959); assay: [3H]DA uptake inhibition at the dopamine transporter; details: read-out: [3H]DA uptake, Ki ± SE
From the text: (§1) These novel ligands have been tested for their binding affinity at the DAT as well as for the inhibition of reuptake of NE, 5-HT, and DA at their specific transporters.

[2] = target: serotonin transporter (5-HTT) (Homo sapiens, UniProt P31645); assay: [3H]5-HT uptake inhibition at the serotonin transporter; details: for 5-HT/DA ratio: ratio of uptake Ki, 5-HT vs DA; for Ki: read-out: [3H]5-HT uptake, Ki ± SE; for higher activity at 5-HTT vs. DAT: selectivity 5-HTT vs DAT
Sequence of serotonin transporter (5-HTT) (P31645 whole entry, species assumed): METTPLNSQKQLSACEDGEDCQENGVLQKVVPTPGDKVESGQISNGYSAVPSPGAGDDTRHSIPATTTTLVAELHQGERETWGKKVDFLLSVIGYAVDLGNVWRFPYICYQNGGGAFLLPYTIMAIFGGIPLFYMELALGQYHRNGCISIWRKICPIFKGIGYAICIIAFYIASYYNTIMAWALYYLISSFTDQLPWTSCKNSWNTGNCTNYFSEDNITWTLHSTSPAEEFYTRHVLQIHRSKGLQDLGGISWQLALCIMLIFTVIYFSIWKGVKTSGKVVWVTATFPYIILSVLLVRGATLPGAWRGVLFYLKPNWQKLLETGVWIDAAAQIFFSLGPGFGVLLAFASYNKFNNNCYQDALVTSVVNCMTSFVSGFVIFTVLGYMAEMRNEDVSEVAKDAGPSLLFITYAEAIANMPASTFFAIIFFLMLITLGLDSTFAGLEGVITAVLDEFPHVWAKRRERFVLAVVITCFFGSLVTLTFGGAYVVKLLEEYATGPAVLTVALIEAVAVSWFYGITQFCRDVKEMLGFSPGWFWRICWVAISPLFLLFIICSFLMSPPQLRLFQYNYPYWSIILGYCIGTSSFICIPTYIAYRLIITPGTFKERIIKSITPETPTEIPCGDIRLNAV
From the text: as §1

[3] = target: norepinephrine transporter (NET) (Homo sapiens, UniProt P23975); assay: [3H]NE uptake inhibition at the norepinephrine transporter; details: for NE/5-HT ratio / NE/DA ratio: ratio of uptake Ki; for NE/5-HT ratio: NE vs 5-HT; for NE/DA ratio: NE vs DA; for Ki: read-out: [3H]NE uptake, Ki ± SE
Sequence of norepinephrine transporter (NET) (P23975 whole entry, species assumed): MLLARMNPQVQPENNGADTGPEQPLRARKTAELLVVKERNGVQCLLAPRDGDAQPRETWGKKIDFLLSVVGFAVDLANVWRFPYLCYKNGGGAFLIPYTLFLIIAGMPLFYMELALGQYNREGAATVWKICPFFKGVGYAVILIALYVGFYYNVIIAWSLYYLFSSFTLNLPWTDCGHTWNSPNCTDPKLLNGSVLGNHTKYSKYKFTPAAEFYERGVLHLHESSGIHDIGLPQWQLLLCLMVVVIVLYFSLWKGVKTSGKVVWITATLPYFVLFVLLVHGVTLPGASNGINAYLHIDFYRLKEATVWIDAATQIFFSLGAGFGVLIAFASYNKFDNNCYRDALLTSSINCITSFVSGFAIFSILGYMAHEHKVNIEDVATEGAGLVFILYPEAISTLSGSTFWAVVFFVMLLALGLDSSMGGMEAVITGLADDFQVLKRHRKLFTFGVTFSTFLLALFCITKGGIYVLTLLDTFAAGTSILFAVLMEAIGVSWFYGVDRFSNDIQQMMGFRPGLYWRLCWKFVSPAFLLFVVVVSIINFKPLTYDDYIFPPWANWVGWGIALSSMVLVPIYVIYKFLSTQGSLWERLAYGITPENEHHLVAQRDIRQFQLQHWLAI
From the text: as §1

Sequence of dopamine transporter (DAT) (Q01959 whole entry, species assumed): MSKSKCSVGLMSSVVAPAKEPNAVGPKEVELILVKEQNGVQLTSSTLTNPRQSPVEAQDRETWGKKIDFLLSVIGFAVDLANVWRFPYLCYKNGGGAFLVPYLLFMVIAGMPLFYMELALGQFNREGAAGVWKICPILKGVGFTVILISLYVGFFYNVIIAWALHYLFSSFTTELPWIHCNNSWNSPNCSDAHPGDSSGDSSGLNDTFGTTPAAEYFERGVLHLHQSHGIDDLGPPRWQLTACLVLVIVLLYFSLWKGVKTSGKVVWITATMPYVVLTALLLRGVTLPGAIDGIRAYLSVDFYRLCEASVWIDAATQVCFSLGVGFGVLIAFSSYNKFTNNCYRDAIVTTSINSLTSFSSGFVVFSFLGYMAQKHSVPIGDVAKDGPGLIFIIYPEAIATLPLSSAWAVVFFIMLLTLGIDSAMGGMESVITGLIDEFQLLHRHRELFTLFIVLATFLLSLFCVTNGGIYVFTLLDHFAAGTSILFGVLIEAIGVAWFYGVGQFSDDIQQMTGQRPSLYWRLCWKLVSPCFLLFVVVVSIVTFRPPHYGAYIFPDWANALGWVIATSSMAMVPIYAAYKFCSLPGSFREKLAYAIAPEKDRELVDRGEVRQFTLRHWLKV

Row | Structure (SMILES) | Ki [1] | 5-HT/DA ratio [2] | Ki [2] | NE/5-HT ratio [3] | NE/DA ratio [3] | Ki [3] | decrease of norepinephrine reuptake activity vs. 5a ([3]; fluoro substituent, 5d vs. 5a) | higher activity at 5-HTT vs. DAT [2] | Ki at the 5-HTT higher than at the NET ([3]; selectivity NET vs 5-HTT) | Ki at the DAT higher than at the NET ([3]; selectivity NET vs DAT) | activity at all three transporters ([3]; NET, 5-HTT and DAT) | higher activity at 5-HTT vs. the NET ([2]; selectivity 5-HTT vs NET)
1 | COC(=O)C1C2CC3CCC1N3CC2=Cc1ccoc1 (stereo not shown) [5g] | 1.88 ± 0.01 µM | 0.26 | 0.498 ± 0.0655 µM | 0.33 | 0.09 | 0.164 ± 0.0028 µM | – | – | – | – | – | –
2 | COC(=O)C1C2CC3CCC1N3CC2=Cc1ccc(F)cc1 (stereo not shown) [5d] | 6.62 ± 0.46 µM | 0.05 | 0.335 ± 0.0455 µM | 1.74 | 0.09 | 0.584 ± 0.163 µM | about 10 factor | – | – | – | – | –
3 | COC(=O)C1C2CC3CCC1N3CC2=Cc1cccc2ccccc12 (stereo not shown) [5e] | 9.72 ± 0.7 µM | 0.01 | 0.121 ± 0.0034 µM | 44.5 | 0.55 | 5.37 ± 0.58 µM | – | – | – | – | – | –
4 | COC(=O)C1C2CC3CCC1N3CC2=Cc1ccc(OC)cc1 (stereo not shown) [5c] | 3.13 ± 0.16 µM | 0.02 | 0.0557 ± 0.0038 µM | 3.37 | 0.06 | 0.187 ± 0.0046 µM | – | 50 fold | – | – | – | –
5 | COC(=O)C1C2CC3CCC1N3CC2=Cc1ccccc1 (single isomer, unassigned) [5a] | 0.481 ± 0.0108 µM | 2.36 | 1.14 ± 0.07 µM | 0.05 | 0.11 | 0.053 ± 0.0161 µM | – | – | 20 fold | 9 fold | – | –
6 | COC(=O)C1C2CC3CCC1N3CC2=Cc1ccccc1 (single isomer, unassigned) [compound 6] | 5.07 ± 0.31 µM | 1.48 | 7.48 ± 0.25 µM | 0.2 | 0.3 | 1.53 ± 0.15 µM | – | – | – | – | only weakly active | –
7 | COC(=O)C1C2CC3CCC1N3CC2=Cc1ccco1 (stereo not shown) [5f] | 2.02 ± 0.19 µM | 1.82 | 3.68 ± 0.19 µM | 0.03 | 0.05 | 0.111 ± 0.0127 µM | – | – | – | – | – | –
8 | COC(=O)C1C2CC3CCC1N3CC2=Cc1ccc(Cl)c(Cl)c1 (stereo not shown) [5b] | 1.92 ± 0.26 µM | 0.01 | 0.0198 ± 0.0005 µM | 50.6 | 0.52 | 1 ± 0.28 µM | – | about 100 fold | – | – | – | about 50 fold
